Source: ChEMBL document CHEMBL1139391, “Synthesis and structure-activity relationship of benzetimide derivatives as human CXCR3 antagonists” (Bioorg Med Chem Lett, 2008)

Experiments:
[1] = molecular target: T1, C-X-C chemokine receptor type 3 (Homo sapiens, UniProt P49682); assay: Antagonist activity at human CXCR3 expressed in CHO cells assessed as inhibition of ITAC-stimulated [35S]GTPgammaS binding pretreated 30 mins before ITAC challenge; format: functional, cell-based
T1 sequence (P49682 whole entry): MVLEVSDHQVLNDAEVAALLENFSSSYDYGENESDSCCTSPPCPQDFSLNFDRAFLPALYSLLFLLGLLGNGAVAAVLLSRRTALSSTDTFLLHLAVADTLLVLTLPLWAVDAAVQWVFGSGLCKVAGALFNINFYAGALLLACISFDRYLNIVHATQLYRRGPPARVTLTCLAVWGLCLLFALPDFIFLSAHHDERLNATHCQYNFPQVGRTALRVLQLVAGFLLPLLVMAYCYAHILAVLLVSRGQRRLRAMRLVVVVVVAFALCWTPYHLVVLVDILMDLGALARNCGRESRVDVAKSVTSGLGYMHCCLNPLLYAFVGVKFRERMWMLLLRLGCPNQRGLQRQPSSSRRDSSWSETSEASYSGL

[2] = molecular target: T2, Muscarinic acetylcholine receptor M1 (Homo sapiens, UniProt P11229); assay: Binding affinity to human muscarinic M1 receptor
T2 sequence (P11229 whole entry): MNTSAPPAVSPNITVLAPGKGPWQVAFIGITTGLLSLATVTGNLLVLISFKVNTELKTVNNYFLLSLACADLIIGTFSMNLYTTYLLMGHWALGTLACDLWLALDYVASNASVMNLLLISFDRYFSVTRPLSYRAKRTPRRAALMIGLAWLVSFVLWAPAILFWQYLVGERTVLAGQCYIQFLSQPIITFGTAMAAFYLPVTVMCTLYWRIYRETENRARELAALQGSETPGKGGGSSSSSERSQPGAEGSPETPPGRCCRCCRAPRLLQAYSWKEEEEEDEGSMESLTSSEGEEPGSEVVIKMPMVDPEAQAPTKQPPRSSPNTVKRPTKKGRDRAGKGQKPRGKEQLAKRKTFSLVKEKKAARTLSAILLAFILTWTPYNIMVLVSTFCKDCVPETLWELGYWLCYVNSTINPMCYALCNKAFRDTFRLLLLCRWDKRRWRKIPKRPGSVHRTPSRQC

[3] = molecular target: T3, Muscarinic acetylcholine receptor M2 (Homo sapiens, UniProt P08172); assay: Binding affinity to human muscarinic M2 receptor
T3 sequence (P08172 whole entry): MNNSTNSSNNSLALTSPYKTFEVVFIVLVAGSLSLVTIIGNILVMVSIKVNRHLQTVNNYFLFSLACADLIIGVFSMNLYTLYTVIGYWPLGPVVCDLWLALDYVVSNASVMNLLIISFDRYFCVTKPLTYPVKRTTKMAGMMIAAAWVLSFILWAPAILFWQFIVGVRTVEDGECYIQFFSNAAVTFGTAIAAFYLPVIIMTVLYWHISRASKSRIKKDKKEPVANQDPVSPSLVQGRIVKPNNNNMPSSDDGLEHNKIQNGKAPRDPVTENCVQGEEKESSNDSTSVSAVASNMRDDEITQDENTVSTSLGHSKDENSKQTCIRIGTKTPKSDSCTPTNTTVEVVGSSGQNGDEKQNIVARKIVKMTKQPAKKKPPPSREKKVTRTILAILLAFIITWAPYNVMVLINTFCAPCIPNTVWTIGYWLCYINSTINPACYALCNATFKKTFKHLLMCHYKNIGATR

[4] = molecular target: Muscarinic acetylcholine receptor M3 (Homo sapiens, UniProt P20309); assay: Binding affinity to human muscarinic M3 receptor
Muscarinic acetylcholine receptor M3, sequence (P20309 whole entry): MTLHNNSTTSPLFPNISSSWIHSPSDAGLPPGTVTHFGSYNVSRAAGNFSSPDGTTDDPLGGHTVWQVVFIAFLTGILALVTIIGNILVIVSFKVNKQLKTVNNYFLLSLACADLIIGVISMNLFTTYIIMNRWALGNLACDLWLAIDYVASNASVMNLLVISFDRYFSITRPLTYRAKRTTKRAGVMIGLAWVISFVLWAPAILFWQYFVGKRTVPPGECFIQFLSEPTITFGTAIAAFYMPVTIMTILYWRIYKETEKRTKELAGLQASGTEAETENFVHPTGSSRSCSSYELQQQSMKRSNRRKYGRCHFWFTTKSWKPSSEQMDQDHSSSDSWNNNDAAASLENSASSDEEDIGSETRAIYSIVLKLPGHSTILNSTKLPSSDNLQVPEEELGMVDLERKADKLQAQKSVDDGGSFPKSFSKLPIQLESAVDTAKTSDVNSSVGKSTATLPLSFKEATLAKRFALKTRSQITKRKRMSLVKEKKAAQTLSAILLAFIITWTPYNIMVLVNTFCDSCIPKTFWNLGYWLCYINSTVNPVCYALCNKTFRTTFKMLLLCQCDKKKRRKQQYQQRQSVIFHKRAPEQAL

SMILES	IC50 [1] [µM]	IC50 [2] [µM]	IC50 [3] [µM]	IC50 [4] [µM]	IC50 ([1]; cho) [µM]
O=CN1CCCC(c2ccccc2)(C2CCN(Cc3ccc(Br)cc3)CC2)C1 (racemic)	0.15				
COc1ccc(C2(C3CCN(Cc4ccc(Br)cc4)CC3)CCC(=O)NC2=O)cc1 (racemic)	3.63				
O=C1CCC(c2ccc(F)cc2F)(C2CCN(Cc3ccc(Br)cc3)CC2)C(=O)N1 (single isomer, unassigned; (-))	0.06	> 10	> 10	> 10	
Nc1cccc(C2(C3CCN(Cc4ccc(Br)cc4)CC3)CCC(=O)NC2=O)c1 (racemic)	0.32				
NC(=O)N1CCCC(c2ccccc2)(C2CCN(Cc3ccc(Br)cc3)CC2)C1 (racemic)	0.25				
O=C1CCC(c2ccccc2)(C2CCN(Cc3ccccc3)CC2)C(=O)N1 (single isomer, unassigned; (+)) [BENZETIMIDE]		< 0.001	< 0.001	< 0.001	> 10
O=C(Nc1ccccc1)N1CCCC(c2ccccc2)(C2CCN(Cc3ccc(Br)cc3)CC2)C1 (single isomer, unassigned; (-))	0.03	> 10	> 10	> 10	
O=C1CCC(c2ccccc2)(C2CCN(Cc3ccccc3)CC2)C(=O)N1 (stereo in doubt; (-)-3a) [BENZETIMIDE]		> 10	> 10	> 10	> 10
CN1CCN(C(=O)c2cccc(C3(C4CCN(Cc5ccc(Br)cc5)CC4)CCC(=O)NC3=O)c2)CC1 (racemic)	1.26				
O=C(C1CC1)N1CCCC(c2ccccc2)(C2CCN(Cc3ccc(Br)cc3)CC2)C1 (racemic)	0.18				
O=C1CCC(c2ccc(F)cc2F)(C2CCN(Cc3ccc(Br)cc3)CC2)C(=O)N1 (single isomer, unassigned; (+))	0.33	< 0.001	< 0.001	< 0.001	
CC(=O)N1CCCC(c2ccccc2)(C2CCN(Cc3ccc(Br)cc3)CC2)C1 (racemic)	0.14				
CCCN1C(=O)CCC(c2ccccc2)(C2CCN(Cc3ccc(Br)cc3)CC2)C1=O (racemic)	5.01				
NC(=O)CN1CCCC(c2ccccc2)(C2CCN(Cc3ccc(Br)cc3)CC2)C1 (stereo in doubt; (+)-47b)	0.06	> 10	> 10	> 10	
O=C1CCC(c2ccccc2)(C2CCN(Cc3ccc(F)cc3)CC2)C(=O)N1 (racemic)	4.57				
CCC(=O)N1CCCC(c2ccccc2)(C2CCN(Cc3ccc(Br)cc3)CC2)C1 (racemic)	0.29				
O=C1CCC(c2ccccc2)(C2CCN(Cc3ccccc3)CC2)C(=O)N1 (racemic) [BENZETIMIDE]	> 10				
O=C(Nc1ccccc1)N1CCCC(c2ccccc2)(C2CCN(Cc3ccc(Br)cc3)CC2)C1 (single isomer, unassigned; (+))	6.31	8.9	> 10	> 10	
O=C1CCC(c2ccc(F)cc2F)(C2CCN(Cc3ccc(Br)cc3)CC2)C(=O)N1 (racemic)	0.12				
CC(=O)N1CCCC(c2ccccc2)(C2CCN(Cc3ccc(Br)cc3)CC2)C1 (single isomer, unassigned; (+))	2.31	> 10	> 10	> 10	
O=C1CCC(c2ccccc2)(C2CCN(Cc3ccc(Cl)cc3Cl)CC2)C(=O)N1 (racemic)	3.16				
COc1ccc(CN2CCC(C3(c4ccccc4)CCC(=O)NC3=O)CC2)cc1 (racemic)	4.27				
O=C1CCC(c2ccccc2)(C2CCN(Cc3ccc(Cl)c(C(F)(F)F)c3)CC2)C(=O)N1 (racemic)	2.51				

More lines, main results first:

IC50 [1] [µM]	IC50 [2] [µM]	IC50 [3] [µM]	IC50 [4] [µM]	SMILES	IC50 ([1]; cho) [µM]
0.83				O=C1CCC(c2ccccc2)(C2CCN(Cc3ccc(Cl)cc3)CC2)C(=O)N1 (racemic)	
2.4				Cc1ccc(CN2CCC(C3(c4ccccc4)CCC(=O)NC3=O)CC2)cc1 (racemic) [MELETIMIDE]	
0.06				O=C(Nc1ccccc1)N1CCCC(c2ccccc2)(C2CCN(Cc3ccc(Br)cc3)CC2)C1 (racemic)	
0.08				NC(=O)CN1CCCC(c2ccccc2)(C2CCN(Cc3ccc(Br)cc3)CC2)C1 (racemic)	
0.32				CCOC(=O)N1CCCC(c2ccccc2)(C2CCN(Cc3ccc(Br)cc3)CC2)C1 (racemic)	
1.33	< 0.001	< 0.001	< 0.001	O=C1CCC(c2ccccc2)(C2CCN(Cc3ccc(Br)cc3)CC2)C(=O)N1 (single isomer, unassigned; (+))	
0.81	5	2	1.1	NC(=O)CN1CCCC(c2ccccc2)(C2CCN(Cc3ccc(Br)cc3)CC2)C1 (single isomer, unassigned; (-))	
0.21				NS(=O)(=O)N1CCCC(c2ccccc2)(C2CCN(Cc3ccc(Br)cc3)CC2)C1 (racemic)	
0.78				O=C1CCC(c2ccccc2)(C2CCN(Cc3ccc(Br)cc3)CC2)C(=O)N1 (racemic)	
1.26				O=C1CCC(c2ccc(F)cc2)(C2CCN(Cc3ccc(Br)cc3)CC2)C(=O)N1 (racemic)	
> 10				Brc1ccc(CN2CCC(C3(c4ccccc4)CCCNC3)CC2)cc1 (racemic)	
1.55				COc1cccc(C2(C3CCN(Cc4ccc(Br)cc4)CC3)CCC(=O)NC2=O)c1 (racemic)	
0.69				O=C(N1CCCC(c2ccccc2)(C2CCN(Cc3ccc(Br)cc3)CC2)C1)C(F)(F)F (racemic)	
0.34				O=C1CCC(c2ccccc2)(C2CCN(Cc3ccc(Cl)c(F)c3)CC2)C(=O)N1 (single isomer, unassigned; (-))	
1.45				O=C1CCC(c2cccc(Cl)c2)(C2CCN(Cc3ccc(Br)cc3)CC2)C(=O)N1 (racemic)	
0.11	10	10	3	CC(=O)N1CCCC(c2ccccc2)(C2CCN(Cc3ccc(Br)cc3)CC2)C1 (single isomer, unassigned; (-))	
0.17				COc1ccc(S(=O)(=O)O)cc1C1(C2CCN(Cc3ccc(Br)cc3)CC2)CCC(=O)NC1=O (racemic)	
